Reference: US6828315B1, “1-Amino triazoloc4,3-a! quinazoline-5-ones and/or -5-thiones inhibiting phosphodiesterase IV” (Warner-Lambert LLC, priority 1999, dated 2004)

| SMILES | melting point |
| --- | --- |
| CN(C)c1nnc2n(Cc3cccnc3)c(=O)c3cc(Br)ccc3n12 [Compound 84, 7-Bromo-1-dimethylamino-4-pyridin-3-ylmethyl-4H-[1,2,4]triazolo[4,3-a]quinazolin-5-one] | 142 °C |
| CN(C)c1nnc2n(CC=Cc3ccccc3)c(=O)c3cc(Br)ccc3n12 [Compound 86, 7-Bromo-1-dimethylamino-4-(3-phenyl-allyl)-4H-[1,2,4]triazolo[4,3-a]quinazolin-5-one] | 167 °C |
| CN(C)c1nnc2n(CC=Cc3ccncc3)c(=O)c3cc(Br)ccc3n12 [Compound 87, 7-Bromo-1-dimethylamino-4-(3-pyridin-4-yl-allyl)-4H-[1,2,4]triazolo[4,3-a]quinazolin-5-one] | 115 °C |
| C#CCn1c(=O)c2cc(Br)ccc2n2c(N(C)C)nnc12 [Compound 88, 7-Bromo-1-dimethylamino-4-prop-2-ynyl-4H-[1,2,4]triazolo[4,3-a]quinazolin-5-one] | 234 °C |
| COC(=O)C(c1ccccc1)n1c(=O)c2cc(Br)ccc2n2c(N(C)C)nnc12 (centres unmarked) [Compound 90, (7-Bromo-1-dimethylamino-5-oxo-5H-[1,2,4]triazolo[4,3-a]quinazolin-4-yl)-phenyl-acetic acid methyl ester] | 243 °C |
| COC(=O)c1ccc(Cn2c(=O)c3cc(C)ccc3n3c(N4CCCC4)nnc23)cc1 [Compound 95, 4(7-Methyl-5-oxo-1-pyrrolidin-1-yl-5H-[1,2,4]triazolo[4,3-a]quinazolin-4-ylmethyl)-benzoic acid methyl ester] | 230 °C |
| Cc1ccc2c(c1)c(=O)n(Cc1cccnc1)c1nnc(N3CCCC3)n21 [Compound 97, 7-Methyl-4-pyridin-3-ylmethyl-1-pyrrolidin-1-yl-4H-[1,2,4)triazolo[4,3-a]quinazolin-5-one] | 139 °C |
| Cc1ccc2c(c1)c(=O)n(CC=Cc1cccnc1)c1nnc(N3CCSCC3)n21 [Compound 100, 7-Methyl-4-(3-pyridin-3-yl-allyl)-1-thiomorpholin-4-yl-4H-[1,2,4]triazolo[4,3-a]quinazolin-5-one] | 230 °C |
| Cc1ccc2c(c1)c(=O)n(CC=Cc1ccncc1)c1nnc(N(C)C)n21 [Compound 105, 1-Dimethylamino-7-methyl-4-(3-pyridin-4yl-allyl)-4H-[1,2,4]triazolo[4,3-a]quinazolin-5-one] | 119 °C |
| CN(C)c1nnc2n(Cc3ccc(C#N)cc3)c(=O)c3cc(C#N)ccc3n12 [Compound 107, 4-(4-Cyano-benzyl)-1-dimethylamino-5-oxo-4,5-dihydro-[1,2,4]triazolo[4,3-a]quinazoline-7-carbonitrile] | 147 to 149 °C |
| O=c1c2cc(O)ccc2n2c(N3CCCC3)nnc2n1C/C=C/c1ccccc1 [Compound 108, 7-Hydroxy-4-((E)-3-phenyl-allyl)-1-pyrrolidin-1-yl-4H-[1,2,4]triazolo[4,3-a]quinazolin-5-one] | 295 °C (dec.) |
| O=c1nc2n(CC=Cc3ccccc3)nc(N3CCCCCC3)n2c2ccccc12 [Compound 109, 1-(azepan-1-yl)-3-(3-phenylallyl)-3H-[1,2,4]triazolo[4,3-a]-quinazolin-5-one] | 176 °C |
| C=CCn1nc(N2CCCCCC2)n2c3ccc(Cl)cc3c(=O)nc12 [Compound 110, 3-Allyl-1-azepan-1-yl-7-chloro-3H-[1,2,4]triazolo[4,3-a]quinazolin-5-one] | 173 °C |
| O=c1nc2n(Cc3ccccc3)nc(N3CCCCCC3)n2c2ccc(Cl)cc12 [Compound 111, 1-(azepan-1-yl)-7-chloro-3-benzyl-3H-[1,2,4]triazolo[4,3-a]-quinazolin-5-one] | 148 °C |
| Cc1ccc(Cn2nc(N3CCCCCC3)n3c4ccc(Cl)cc4c(=O)nc23)cc1 [Compound 112, 1-Azepan-1-yl-7-chloro-3-(4-methyl-benzyl)-3H-[1,2,4]triazolo[4,3-a]quinazolin-5-one] | 182 °C |
| O=c1nc2n(Cc3ccccc3Cl)nc(N3CCCCCC3)n2c2ccc(Cl)cc12 [Compound 113, 1-(azepan-1-yl)-7-chloro-3-(2-chlorobenzyl)-3H-[1,2,4]triazolo[4,3-a]quinazolin-5-one] | 228 °C |
| O=c1nc2n(Cc3cccc(Cl)c3)nc(N3CCCCCC3)n2c2ccc(Cl)cc12 [Compound 114, 1-(azepan-1-yl)-7-chloro-3-(3-chlorobenzyl)-3H-[1,2,4]triazolo[4,3-a]quinazolin-5one] | 166 °C |
| O=c1nc2n(Cc3ccc(Cl)cc3)nc(N3CCCCCC3)n2c2ccc(Cl)cc12 [Compound 115, 1-(azepan-1-yl)-7-chloro-3-(4-chlorobenzyl)-3H-[1,2,4]triazolo[4,3-a]quinazolin-5-one] | 245 °C |
| O=c1nc2n(Cc3ccc(Br)cc3)nc(N3CCCCCC3)n2c2ccc(Cl)cc12 [Compound 116, 1-(azepan-1-yl)-7-chloro-3-(4-bromobenzyl)-3H-[1,2,4]triazolo(4,3-a]quinazolin-5-one] | 244 °C |

| SMILES | melting point |
| --- | --- |
| O=c1nc2n(Cc3ccc(F)cc3)nc(N3CCCCCC3)n2c2ccc(Cl)cc12 [Compound 117, 1-(azepan-1-yl)-7-chloro-3-(4-fluorobenzyl)-3H-[1,2,4)triazolo[4,3-a]quinazolin-5-one] | 224 °C |
| O=c1nc2n(Cc3ccc(C(F)(F)F)cc3)nc(N3CCCCCC3)n2c2ccc(Cl)cc12 [Compound 118, 1-(azepan-1-yl)-7-chloro-3-(4-(trifluoromethyl)benzyl)-3H-[1,2,4]triazolo[4,3-a]quinazolin-5-one] | 232 °C |
| N#Cc1ccc(Cn2nc(N3CCCCCC3)n3c4ccc(Cl)cc4c(=O)nc23)cc1 [Compound 119, 1-(azepan-1-yl)-7-chloro-3-(4-cyanobenzyl)-3H-[1,2,4]triazolo[4,3-a]quinazolin-5-one] | > 260 °C |
| COc1ccccc1Cn1nc(N2CCCCCC2)n2c3ccc(Cl)cc3c(=O)nc12 [Compound 120, 1-(azepan-1-yl)-7-chloro-3-(2-methoxybenzyl)-3H-[1,2,4]triazolo[4,3-a]quinazolin-5-one] | 184 °C |
| COc1cccc(Cn2nc(N3CCCCCC3)n3c4ccc(Cl)cc4c(=O)nc23)c1 [Compound 121, 1-(azepan-1-yl)-7-chloro-3-(3-methoxybenzyl)-3H-[1,2,4]triazolo[4,3-a]quinazolin-5-one] | 163 °C |
| COc1ccc(Cn2nc(N3CCCCCC3)n3c4ccc(Cl)cc4c(=O)nc23)cc1 [Compound 122, 1-(azepan-1-yl)-7-chloro-3-(4-methoxybenzyl)-3H-[1,2,4]triazolo[4,3-a]quinazolin-5-one] | 164 to 165 °C |
| O=c1nc2n(Cc3ccc(Cl)c(Cl)c3)nc(N3CCCCCC3)n2c2ccc(Cl)cc12 [Compound 123, 1-(azepan-1-yl)-7-chloro-3-(3,4-dichlorobenzyl)-3H-[1,2,4]triazolo[4,3-a]quinazolin-5-one] | 212 °C |
| COc1ccc(Cn2nc(N3CCCCCC3)n3c4ccc(Cl)cc4c(=O)nc23)cc1OC [Compound 124, 1-(azepan-1-yl)-7-chloro-3-(3,4-dimethoxybenzyl)-3H-[1,2,4]triazolo[4,3-a]quinazolin-5-one] | 153 °C |
| O=c1nc2n(Cc3ccccn3)nc(N3CCCCCC3)n2c2ccc(Cl)cc12 [Compound 125, 1-(azepan-1-yl)-7-chloro-3-(2-pyridylmethyl)-3H-[1,2,4]triazolo[4,3-a]quinazolin-5-one] | 153 °C |
| O=c1nc2n(Cc3cccnc3)nc(N3CCCCCC3)n2c2ccc(Cl)cc12 [Compound 126, 1-(azepan-1-yl)-7-chloro-3-(3-pyridylmethyl)-3H-[1,2,4]triazolo[4,3-a]quinazolin-5-one] | 184 °C |
| COc1ccc(CCn2nc(N3CCCCCC3)n3c4ccc(Cl)cc4c(=O)nc23)cc1 [Compound 128, 1-(azepan-1-yl)-7-chloro-3-[2-(4-methoxyphenyl)ethyl)-3H-[1,2,4]triazolo[4,3-a]quinazolin-5-one] | 196 °C |
| O=c1nc2n(CCCc3ccccc3)nc(N3CCCCCC3)n2c2ccc(Cl)cc12 [Compound 129, 1-(azepan-1-yl)-7-chloro-3-(3-phenylpropyl)-3H-[1,2,4]triazolo[4,3-a]quinazolin-5-one] | 130 °C |
| O=C(Cn1nc(N2CCCCCC2)n2c3ccc(Cl)cc3c(=O)nc12)c1ccccc1 [Compound 130, 1-Azepan-1-yl-7-chloro-3-(2-oxo-2-phenyl-ethyl)3H-[1,2,4]triazolo[4,3-a]quinazolin-5-one] | 230 to 232 °C |
| COc1ccc(C(=O)Cn2nc(N3CCCCCC3)n3c4ccc(Cl)cc4c(=O)nc23)cc1 [Compound 131, 1-(azepan-1-yl)-7-chloro-3-(2-(4-methoxyphenyl)-2-oxoethyl]-3H-[1,2,4]triazolo[4,3-a]quinazolin-5-one] | 238 °C |
| O=C(Cn1nc(N2CCCCCC2)n2c3ccc(Cl)cc3c(=O)nc12)c1ccc(Cl)cc1 [Compound 132, 1-(azepan-1-yl)-7-chloro-3-[2-(4-chlorophenyl)-2-oxoethyl)-3H-[1,2,4]triazolo[4,3-a]quinazolin-5-one] | 238 °C |
| COC(=O)c1cc(C(=O)Cn2nc(N3CCCCCC3)n3c4ccc(Cl)cc4c(=O)nc23)ccc1OC [Compound 133, 5-[(1-(azepan-1-yl)-7-chloro-5-oxo-5H-[1,2,4]triazolo[4,3-a]-quinazolin-3-yl)acetyl]-2-methoxybenzoic acid methyl ester] | 136 °C |
| O=c1nc2n(Cc3ccc(Cl)cc3)nc(N3CCCCCC3)n2c2ccc(Br)cc12 [Compound 134, 1-(azepan-1-yl)-7-bromo-3-(4-chlorobenzyl)-3H-[1,2,4]triazolo[4,3-a]quinazolin-5-one] | 247 °C |
| O=c1nc2n(Cc3ccc(F)cc3)nc(N3CCCCCC3)n2c2ccc(Br)cc12 [Compound 135, 1-(azepan-1-yl)-7-bromo-3-(4-fluorobenzyl)-3H-[1,2,4]triazolo[4,3-a]quinazolin-5-one] | 216 °C |
| N#Cc1ccc(Cn2nc(N3CCCCCC3)n3c4ccc(Br)cc4c(=O)nc23)cc1 [Compound 136, 4(1-(azepan-1-yl)-7-bromo-5-oxo-5H-[1,2,4]triazolo[4,3-a]-quinazolin-3-ylmethyl)-benzonitrile] | 293 °C |
